What was measured:
[1] = target: T1, GST fusion protein containing the Met kinase domain (Homo sapiens, UniProt P08581); assay: MET transphosphorylation assay (ELISA, poly(glu-tyr) substrate); assay type: biochemical
T1 construct: Purified GST fusion protein containing the Met kinase domain, SUGEN, Inc
Procedure: MET Transphosphorylation Assay
This assay is used to measure phosphotyrosine levels on a poly(glutamic acid:tyrosine, 4:1) substrate as a means for identifying agonists/antagonists of met transphosphorylation of the substrate.
Purified GST fusion protein containing the Met kinase domain, SUGEN, Inc.
10% aqueous (MilliQue H2O) DMSO.
2× Kinase Dilution Buffer: for 100 mL, mix 10 mL 1M HEPES at pH 7.5 with 0.4 mL 5% BSA/PBS, 0.2 mL 0.1 M sodium orthovanadate and 1 mL 5M sodium chloride in 88.4 mL dH2O.
4× ATP Reaction Mixture: for 10 mL, mix 0.4 mL 1 M manganese chloride and 0.02 mL 0.1 M ATP in 9.56 mL dH2O.
4× Negative Controls Mixture: for 10 mL, mix 0.4 mL 1 M manganese chloride in 9.6 mL dH2O.
Antibody Dilution Buffer: for 100 mL, mix 10 mL 5% BSA/PBS, 0.5 mL 5% Carnation® Instant Milk in PBS and 0.1 mL 0.1 M sodium orthovanadate in 88.4 mL TBST.
Rabbit polyclonal antophosphotyrosine antibody, SUGEN, Inc.
Goat anti-rabbit horseradish peroxidase conjugated antibody, Biosource, Inc.
ABTS Solution: for 1 L, mix 19.21 g citric acid, 35.49 g Na2HPO4 and 500 mg ABTS with sufficient dH2O to make 1 L.
ABTS/H2O2: mix 15 mL ABST solution with 2 μL H2O2 five minutes before use.
Coat ELISA plates with 2 μg Poly(Glu-Tyr) in 100 μL PBS, hold-overnight at 4° C.
Block plate with 150 μL of 5% BSA/PBS for 60 min.
Wash plate twice with PBS then once with 50 mM Hepes buffer pH 7.4. […]

[2] = target: T2, HGFR (Homo sapiens, UniProt P08581); assay: HGFR continuous-coupled spectrophotometric assay; assay type: biochemical; settings: for I(%): Table 3, Ki(μM) or I(%), test concentration not given; for % inhibition / inhibition at 0.05 µM: Table 5, percent c-MET inhibition at 50 nM; for % inhibition: 0.05 µM
T2 construct: purchased Upstate 14-526
T2 sequence (P08581 974-1390 limits assumed): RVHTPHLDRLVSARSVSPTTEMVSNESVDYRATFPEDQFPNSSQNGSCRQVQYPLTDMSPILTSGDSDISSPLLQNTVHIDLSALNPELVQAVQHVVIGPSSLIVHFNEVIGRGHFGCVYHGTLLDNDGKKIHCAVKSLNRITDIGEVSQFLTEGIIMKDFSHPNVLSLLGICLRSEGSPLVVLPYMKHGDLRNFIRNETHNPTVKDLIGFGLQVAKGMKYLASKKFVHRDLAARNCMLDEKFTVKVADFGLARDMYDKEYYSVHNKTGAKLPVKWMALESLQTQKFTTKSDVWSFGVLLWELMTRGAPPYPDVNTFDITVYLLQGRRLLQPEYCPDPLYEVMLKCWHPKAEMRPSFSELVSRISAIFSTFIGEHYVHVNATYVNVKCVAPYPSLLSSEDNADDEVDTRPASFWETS

T1 sequence (P08581 1078-1345 limits assumed): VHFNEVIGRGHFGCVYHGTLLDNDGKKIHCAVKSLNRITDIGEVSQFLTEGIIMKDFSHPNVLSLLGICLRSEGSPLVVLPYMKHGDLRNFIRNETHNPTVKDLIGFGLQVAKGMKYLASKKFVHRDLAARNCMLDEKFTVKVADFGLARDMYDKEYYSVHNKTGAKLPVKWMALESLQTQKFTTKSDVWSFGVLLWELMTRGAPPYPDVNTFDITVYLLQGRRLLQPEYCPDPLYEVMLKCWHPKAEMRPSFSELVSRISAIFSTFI

Structure (SMILES): Nc1ncc(-c2ccccc2)cc1OCc1c(Cl)cccc1Cl [Example I-9, 3-(2,6-Dichloro-benzyloxy)-5-phenyl-pyridin-2-ylamine]
- IC50 [1]: 3.9 µM

Structure (SMILES): Cc1ccccc1-c1cnc(N)c(OC(C)c2c(Cl)ccc(F)c2Cl)c1 (stereo not shown) [Example I-565, 3-[1-(2,6-Dichloro-3-fluoro-phenyl)-ethoxy]-5-o-tolyl-pyridin-2-ylamine]
- I(%) [2]: 25%

Structure (SMILES): Cc1cccc(C)c1-c1cnc(N)c(OC(C)c2c(Cl)ccc(F)c2Cl)c1 (stereo not shown) [Example I-567, 3-[1-(2,6-Dichloro-fluoro-pheny)-ethoxy]-5-(2,6-dimethylphenyl)-pyridin-2-ylamine]
- I(%) [2]: 0%

Structure (SMILES): CC(Oc1cc(CNC2CCN(Cc3ccccc3)C2)cnc1N)c1c(Cl)ccc(F)c1Cl (stereo not shown) [Example I-608, 5-[(1-Benzyl-pyrrolidin-3-ylamino)-methyl]-3-[1-(2,6-dichloro-3-fluoro-phenyl)-ethoxy]-pyridin-2-ylamine]
- I(%) [2]: 0%

Structure (SMILES): CC(Oc1cc(-c2ccc(C(=O)N3C[C@@H](C)N[C@@H](C)C3)cc2)cnc1N)c1ccccc1C(F)(F)F (stereo partly shown) [Example I-616]
- I(%) [2]: 3%

Structure (SMILES): CC(Oc1cc(-c2ccc(C(=O)N3C[C@@H](C)N[C@@H](C)C3)cc2)cnc1N)c1cccc(C(F)(F)F)c1 (stereo partly shown) [Example I-617, (4-{6-Amino-5-[1-(3-trifluoromethyl-phenyl)-ethoxy]-pyridin-3-yl]-phenyl)-(3,5-dimethyl-piperazin-1-yl)-methanone]
- I(%) [2]: 2%

Structure (SMILES): C[C@@H]1CN(C(=O)c2ccc(-c3cnc4c(c3)OC(c3ccccc3)C(=O)N4)cc2)C[C@H](C)N1 (stereo partly shown) [Example I-618, 7-(4-(3,5-Dimethyl-piperazine-1-carbonyl)-phenyl]-2-phenyl-4H-pyrido[3,2-b](1,4]oxazin-3-one]
- I(%) [2]: 0%

Structure (SMILES): C[C@@H]1CN(C(=O)c2ccc(-c3cnc(N)c(OCc4cccc(F)c4C(F)(F)F)c3)cc2)C[C@H](C)N1 [Example I-619, {4-[6-Amino-5-(3-fluoro-2-trifluoromethyl-benzyloxy)-pyridin-3-yl]-phenyl}-(3,5-dimethyl-piperazin-1-yl)-methanone]
- I(%) [2]: 16%

Structure (SMILES): CC1CN(C(=O)c2ccc(-c3cnc(N)c(OCc4c(F)cccc4F)c3)cc2)CC(C)N1 (stereo not shown) [Example I-620, {4-[6-Amino-5-(2,6-difluoro-benzyloxy)-pyridin-3-yl]-phenyl}-(3,5-dimethyl-piperazin-1-yl)-methanone]
- I(%) [2]: 5%

Structure (SMILES): CC1CN(C(=O)c2ccc(-c3cnc(N)c(OCc4ccccc4)c3)cc2)CC(C)N1 (stereo not shown) [Example I-621, {4-(6-Amino-5-benzyloxy-pyridin-3-yl)-phenyl]-(3,5-dimethyl-piperazin-1-yl)-methanone]
- I(%) [2]: 6%

Structure (SMILES): CCN1CCN(C(=O)c2ccc(-c3cnc(N)c(OCc4ccccc4)c3)cc2)CC1 [Example I-623, [4-(6-Amino-5-benzyloxy-pyridin-3-yl)-phenyl]-(4-ethyl-piperazin-1-yl)-methanone]
- I(%) [2]: 7%

Structure (SMILES): Cc1ccccc1COc1cc(-c2ccc(C(=O)N3CC(C)NC(C)C3)cc2)cnc1N (stereo not shown) [Example I-624, {4-[6-Amino-5-(2-methyl-benzyloxy)-pyridin-3-yl]-phenyl}-(3,5-dimethyl-piperazin-1-yl)-methanone]
- I(%) [2]: 0%

Structure (SMILES): COC(=O)c1cccc(COc2cc(-c3ccc(C(=O)N4CCC(N5CCCC5)CC4)cc3)cnc2N)c1 [Example I-625, 3-{2-Amino-5-[4-(4-pyrrolidin-1-yl-piperidzne-1-carbonyl)-phenyl]-pyridin-3-yloxymethyl)-benzoic acid methyl ester]
- I(%) [2]: 6%

Structure (SMILES): COC(=O)c1cccc(COc2cc(-c3ccc(C(=O)N4CC(C)NC(C)C4)cc3)cnc2N)c1 (stereo not shown) [Example I-626, 3-{2-Amino-5-[4-(3,5-dimethyl-piperazine-1-carbonyl)-phenyl]-pyridin-3-yloxymethyl}-benzoic acid methyl ester]
- I(%) [2]: 0%

Structure (SMILES): Cc1ccccc1COc1cc(-c2ccc(C(=O)N3CCC(N4CCCC4)CC3)cc2)cnc1N [Example I-627, {4-[6-Amino-5-(2-methyl-benzxloxy)-pyridin-3-yl]-phenyl}-(4-pyrrolidin-1-yl-piperidin-1-yl)-methanone]
- I(%) [2]: 6%

Structure (SMILES): Nc1ncc(-c2ccc(C(=O)N3CCC(N4CCCC4)CC3)cc2)cc1OCC1CCCCC1 [Example I-628, [4-(6-Amino-5-cyclohexylmethoxy-pyridin-3-yl)-phenyl]-(4-pyrrolidin-1-yl-piperidin-1-yl)-methanone]
- I(%) [2]: 7%

Structure (SMILES): CC(Oc1cc(-c2ccc(C(=O)N3CCC(N4CCCC4)CC3)cc2)cnc1N)c1ccc(C(=O)NCCc2cccc(O)c2)cc1 (stereo not shown) [Example I-629, 4-(1-{2-Amino-5-[4-(4-pyrrolidin-1-yl-piperidine-1-carbonyl)-phenyl]-pyridin-3-yloxy}-ethyl)-[2-(3-hydroxy-phenyl)-ethyl]-benzamide]
- I(%) [2]: 7%

Structure (SMILES): CC(Oc1cc(-c2ccc(C(=O)N3CCC(N4CCCC4)CC3)cc2)cnc1N)c1ccc(C(=O)NC2CCN(Cc3ccccc3)CC2)cc1 (stereo not shown) [Example I-631]
- I(%) [2]: 3%

Structure (SMILES): CC(Oc1cc(-c2ccc(C(=O)N3CCC(N4CCCC4)CC3)cc2)cnc1N)c1ccc(C(=O)NCCCN2CCCC2=O)cc1 (stereo not shown) [Example I-632, 4-(1-{2-Amino-5-[4-(4-pyrrolidin-1-yl-piperidine-1-carbonyl)-phenyl)-pyridin-3-yloxy}-ethyl)-[3-(2-oxo-pyrrolidin-1-yl)-propyl]-benzamide]
- I(%) [2]: 0%

Structure (SMILES): CC1CN(C(=O)c2ccc(-c3cnc(N)c(OCc4c(Cl)cccc4Cl)c3)cc2)CC(C)N1 (stereo not shown) [Example I-634, {4-[6-Amino-5-(2,6-dichloro-benzyloxy)-pyridin-3-yl]-phenyl}-(3,5-dimethyl-piperazin-1-yl)-methanone]
- I(%) [2]: 10%

Structure (SMILES): Nc1ncc(-c2ccc(C(=O)N3CCC(N4CCCC4)CC3)cc2)cc1OCc1ccccc1 [Example I-649, [4-(6-Amino-5-benzyloxy-pyridin-3-yl)-phenyl]-(4-pyrrolidin-1-yl-piperidin-1-yl)-methanone]
- I(%) [2]: 29%

Structure (SMILES): CC(Oc1cc(-c2nccn2C)cnc1N)c1c(Cl)ccc(F)c1Cl (stereo not shown) [Example I-652]
- I(%) [2]: 11%

Structure (SMILES): Cc1cc(C)c(COc2cc(-c3ccc(C(=O)N4CCC(N5CCCC5)CC4)cc3)cnc2N)c(C)c1 [Example I-653, {4-[6-Amino-5-(2,4,6-trimethyl-benzyloxy)-pyridin-3-yl]-phenyl}-(4-pyrrolidin-1-yl-piperidin-1-yl)-methanone]
- I(%) [2]: 2%

Structure (SMILES): Cc1cc(C)c(C)c(COc2cc(-c3ccc(C(=O)N4CCC(N5CCCC5)CC4)cc3)cnc2N)c1C [Example I-654, {4-[6-Amino-5-(2,3,5,6-tetramethyl-benzyloxy)-pyridin-3-yl]-phenyl)-(4-pyrrolidin-1-yl-piperidin-1-yl)-methanone]
- I(%) [2]: 9%

Structure (SMILES): CC(Oc1cc(-c2ccc(C(=O)N[C@H]3CC[C@H](O)CC3)cc2)cnc1N)c1c(Cl)ccc(F)c1Cl (stereo partly shown) [drawing 1011]
- % inhibition [2]: % inhibition = 72

Structure (SMILES): CC(Oc1cc(-c2ccc(C(=O)N[C@H]3CC[C@H](O)CC3)cc2)cnc1N)c1c(Cl)ccc(F)c1Cl (stereo partly shown) [drawing 1039]
- inhibition at 0.05 µM [2]: 73%

Structure (SMILES): CC(Oc1cc(-c2ccc(C(=O)N[C@H](C)C3CCCCC3)cc2)cnc1N)c1c(Cl)ccc(F)c1Cl (stereo partly shown) [drawing 1068]
- inhibition at 0.05 µM [2]: 60%

Structure (SMILES): CC(Oc1cc(-c2ccc(C(=O)N[C@H](C)C3CCCCC3)cc2)cnc1N)c1c(Cl)ccc(F)c1Cl (stereo partly shown) [drawing 1071]
- % inhibition [2]: % inhibition = 54

Source: patent publication US8106197B2, “Aminoheteroaryl compounds as protein kinase inhibitors” (Pfizer Inc., priority 2003, dated 2012)
